Laboratory results published in patent publication US10723764B2, “Anti-microbial peptides and methods of use thereof” (priority 2011, dated 2020).
≈ marks a conversion by molar mass, not a printed value. Like-named read-outs stand apart in the source and are kept apart here. Where a SMILES comes first, the peptide text is derived from it. Where no end group is shown, it is not given here. [ ]: non-standard residue; d: D form. Phe(4-CF3) = N[C@@H](Cc1ccc(C(F)(F)F)cc1)C(=O)O; Bip = N[C@@H](Cc1ccc(-c2ccccc2)cc1)C(=O)O; 2Nal = N[C@@H](Cc1ccc2ccccc2c1)C(=O)O

How the values were obtained:
[1] = test system: methicillin-resistant Staphylococcus aureus USA300 LAC; details: for MICs (μM) SA: S. aureus USA300, Table 5 screen; for MIC (μM) SA: S. aureus USA300 LAC, Table 10
Experimental: This was done by modifying the standard microdilution antimicrobial assays (Wang, G. (2008) J. Biol. Chem., 283:32637-32643). Specifically, the bacterial wells with a high peptide concentration (e.g. 100 μM) are duplicated (e.g., two for antimicrobial assays and two for protease stability assays). As an illustration, chymotrypsin was applied to the duplicated wells at a peptide:protease molar ratio of 25:1.

[2] = test system: Escherichia coli K12; details: for MICs (μM) EC: E. coli K12, Table 5 screen
[3] = test system: human erythrocytes; details: for HL50 (μM), peptide concentration that causes 50% lysis of human erythrocytes: Table 10
Experimental: (§1) Peptide hemolysis was assayed using an established protocol (Malmsten et al. (2011) PLoS One 6:e16400). In brief, fresh blood, obtained from the UNMC Blood Bank, was washed three times with PBS buffer and made into a 5% solution. To 90 μL of this solution, 10 μL of a peptide solution was added and incubated at 37° C. for one hour. After centrifugation at 13,000 rpm, aliquots of the supernatant were transferred to a fresh 96 well microplate. The absorbance of the solutions was measured at 545 nm to detect the amount of hemoglobin released. The percent lysis was calculated by assuming 100% release when treated with 2% Triton X-100 and no lysis (0%) when treated with PBS buffer. HL50 was the peptide concentration that caused 50% lysis of human erythrocytes. The cell selectivity (CS) indexes were calculated as the ratio of HL50 to the MIC of the peptide against S. aureus USA300.
(§2) The hemolytic effects of the six peptides were also compared on human red blood cells (hRBC) using an established protocol (Malmsten et al. (2011) PLoS One 6:e16400). […] A high TI indicates good cell selectivity.
(§3) Peptide hemolysis was assayed using an established protocol (Menousek et al. (2012) Int. J. Antimicrob. Agents 39:402-406; Malmsten et al. (2011) PLoS One 6:e16400). Briefly, blood cells were washed three times with phosphate-buffered saline (PBS) and were diluted to a 5% solution. Following peptide treatment, incubation at 37° C. for 1 hour and centrifugation at 13,000 rpm, aliquots of the supernatant were transferred to a fresh 96-well microplate. To assess peptide cytotoxicity, the amount of hemoglobin released was measured at 545 nm. Percent lysis was calculated by assuming 100% release when human blood cells were treated with 2% Triton X-100 and 0% release when they were incubated with PBS buffer.

[4] = test system: Pseudomonas aeruginosa PAO1; format: cell-based
Experimental: The bacterial strains used in the study are Bacillus subtilis 168, methicillin-resistant Staphylococcus aureus USA300 LAC (Gram-positive), Escherichia coli K12, and Pseudomonas aeruginosa PAO1 (Gram negative). The antibacterial activities of the peptides were determined using the standard broth microdilution method (Wang et al. (2005) J. Biol. Chem., 280:5803-5811). In brief, the bacterial culture (90 μL) was treated with a series of peptide solutions (10 μL), each with two-fold dilution. After overnight incubation at 37° C., the microplate was read on a ChroMate® 4300 Microplate Reader at 630 nm (GMI, Ramsey, Minn.).
For the initial screen, antimicrobial activities of these peptides against S. aureus and E. coli were evaluated using the standard broth microdilution protocol (Wang, G. (2008) J. Biol. Chem., 283:32637-43). […] Subsequently, the in vitro activity of these six peptides was evaluated against Bacillus subtilis and Pseudomonas aeruginosa (Table 6). […] While maculatin 1.3 is active against two Gram-positive but not two Gram-negative bacterial strains, DASamP1 is species-specific since it active only against S. aureus. The finding that ascaphin-8, […], and piscidin 1 are wide-spectrum AMPs agrees with the literature (Apponyi et al. (2004) Peptides 25:1035-1054; Conlon et al. (2004) Biochem. Biophys. Res. Commun., 320:170-175; Silphaduang et al. (2001) Nature 414:268-269; Souza et al. (2005) J. Immunol., 186:6585-6596). For lycotoxin I, it was previously found to active against Gram-negative E. coli and yeast (Yan et al. (1998) J. Biol. Chem., 273:2059-2066).
(§4) The antibacterial activities of the peptides were determined using the standard broth microdilution method (Mishra et al. (2012) J. Am. Chem. Soc., 134:12426-12429; Wang et al. (2005) Biol. Chem., 280:5803-5811). Briefly, the bacterial culture was treated with a series of peptide solutions, each with two-fold dilution. After overnight incubation at 37° C., the microplate was read on a ChroMate® 4300 Microplate Reader at 630 nm (GMI, Ramsey, Minn.).

[5] = test system: A. baumannii B2367-12; format: cell-based, Acinetobacter baumanii
Experimental: as §4

[6] = test system: E. cloacae B2366-12; format: cell-based
Experimental: as §4

[7] = test system: E. faecium ATCC51559; format: cell-based, Enterococcus faecium
Experimental: as §4

[8] = test system: Gram-positive bacteria; design: key: Y, Yes; N, No; details: data from the APD; cited from earlier work
[9] = test system: Gram-negative bacteria; design: key: Y, Yes; N, No; details: data from the APD; cited from earlier work
[10] = human, hemolysis, at 160 μM, human red blood cells
Experimental: as §1, §2, §3

| Molecule | MICs (μM) SA [1] | MICs (μM) EC [2] | HL50 (μM), peptide concentration that causes 50% lysis of human erythrocytes [3] | MIC (μM) SA [1] | MIC (μM) PA [4] | MIC (μM) AB [5] | further results |
| --- | --- | --- | --- | --- | --- | --- | --- |
| HVDKKVADKVLLLKQLRIMRLLTRL [Spinigerin, reference compound] | >81 µM | >81 µM | – | – | – | – | – |
| GFLSILKKVLPKVMAHMK-NH2 [Melectin, reference compound] | 12.5 to 25 µM | 12.5 to 25 µM | – | – | – | – | – |
| GNNRPVYIPQPRPPHPRI [Apidaecin IA, reference compound] | >100 µM | >100 µM | – | – | – | – | – |
| RQRVEELSKFSKKGAAARRRK [Misgurin, reference compound] | >84 µM | >84 µM | – | – | – | – | – |
| RPKHPIKHQGLPQEVLNENLLRF [Isracidin, reference compound] | >100 µM | >100 µM | – | – | – | – | – |
| CC(C)C[C@H](NC(=O)[C@H](CC(N)=O)NC(=O)[C@H](CCCNC(=N)N)NC(=O)[C@@H](CC(C)C)NC(=O)[C@H](Cc1ccc2ccccc2c1)NC(=O)[C@H](CC(=O)O)NC(=O)[C@H](CCCCN)NC(=O)[C@@H](CC(C)C)NC(=O)[C@H](CCCNC(=N)N)NC(=O)[C@H](CCC(N)=O)NC(=O)[C@@H](NC(=O)[C@@H](CC(C)C)NC(=O)[C@H](CCCNC(=N)N)NC(=O)[C@H](CCCCN)NC(=O)[C@H](Cc1ccccc1)NC(=O)CN)C(C)C)C(=O)N[C@H](C(N)=O)C(C)C [17F-Naph, GX1KRLVQRLKDX2LRNLV] (H-GFKR[dL]VQR[dL]KD[2Nal][dL]RNLV-NH2) | – | – | >900 µM | 25 µM (≈ 53.8 µg/mL) | 12.5 µM (≈ 26.9 µg/mL) | 3.1 µM (≈ 6.67 µg/mL) | MIC (μM) EC ([6]; E. cloacae B2366-12): 12.5 µM (≈ 26.9 µg/mL); MIC (μM) EF ([7]; ATCC51559): 3.1 µM (≈ 6.67 µg/mL) |
| CC(C)C[C@H](NC(=O)[C@H](CC(N)=O)NC(=O)[C@H](CCCNC(=N)N)NC(=O)[C@@H](CC(C)C)NC(=O)[C@H](Cc1ccc2ccccc2c1)NC(=O)[C@H](CC(=O)O)NC(=O)[C@H](CCCCN)NC(=O)[C@@H](CC(C)C)NC(=O)[C@H](CCCNC(=N)N)NC(=O)[C@H](CCC(N)=O)NC(=O)[C@@H](NC(=O)[C@@H](CC(C)C)NC(=O)[C@H](CCCNC(=N)N)NC(=O)[C@H](CCCCN)NC(=O)[C@H](Cc1ccc(C(F)(F)F)cc1)NC(=O)CN)C(C)C)C(=O)N[C@H](C(N)=O)C(C)C [17mF-Naph, GX1KRLVQRLKDX2LRNLV] (H-G[Phe(4-CF3)]KR[dL]VQR[dL]KD[2Nal][dL]RNLV-NH2) | – | – | 500 µM | 6.2 µM (≈ 13.8 µg/mL) | 6.2 to 12.5 µM | 3.1 µM (≈ 6.88 µg/mL) | MIC (μM) EC ([6]; B2366-12): 6.2 µM (≈ 13.8 µg/mL); MIC (μM) EF ([7]; ATCC51559): 3.1 µM (≈ 6.88 µg/mL) |
| CC(C)C[C@H](NC(=O)[C@H](CC(N)=O)NC(=O)[C@H](CCCNC(=N)N)NC(=O)[C@@H](CC(C)C)NC(=O)[C@H](Cc1ccc(C(F)(F)F)cc1)NC(=O)[C@H](CC(=O)O)NC(=O)[C@H](CCCCN)NC(=O)[C@@H](CC(C)C)NC(=O)[C@H](CCCNC(=N)N)NC(=O)[C@H](CCC(N)=O)NC(=O)[C@@H](NC(=O)[C@@H](CC(C)C)NC(=O)[C@H](CCCNC(=N)N)NC(=O)[C@H](CCCCN)NC(=O)[C@H](Cc1ccc2ccccc2c1)NC(=O)CN)C(C)C)C(=O)N[C@H](C(N)=O)C(C)C [17Naph-mF, GX1KRLVQRLKDX2LRNLV] (H-G[2Nal]KR[dL]VQR[dL]KD[Phe(4-CF3)][dL]RNLV-NH2) | – | – | 950 µM | 6.2 µM (≈ 13.8 µg/mL) | 6.2 to 12.5 µM | 3.1 µM (≈ 6.88 µg/mL) | MIC (μM) EC ([6]; E. cloacae B2366-12): 6.2 to 12.5 µM; MIC (μM) EF ([7]; ATCC51559): 3.1 µM (≈ 6.88 µg/mL) |
| Temporin C: temporin, APD ID 96, SEQ ID NO: 21 (LLPILGNLLNGLL; listed as Rana temporaria) | – | – | – | – | – | – | Activity G+ (activity against Gram-positive bacteria) [8]: Y; Activity G− (activity against Gram-negative bacteria) [9]: N |
| CC(C)C[C@H](NC(=O)[C@H](CC(N)=O)NC(=O)[C@H](CCCNC(=N)N)NC(=O)[C@@H](CC(C)C)NC(=O)[C@H](Cc1ccccc1)NC(=O)[C@H](CC(=O)O)NC(=O)[C@H](CCCCN)NC(=O)[C@@H](CC(C)C)NC(=O)[C@H](CCCNC(=N)N)NC(=O)[C@H](CCC(N)=O)NC(=O)[C@@H](NC(=O)[C@@H](CC(C)C)NC(=O)[C@H](CCCNC(=N)N)NC(=O)[C@H](CCCCN)NC(=O)[C@H](Cc1ccc(-c2ccccc2)cc1)NC(=O)CN)C(C)C)C(=O)N[C@H](C(N)=O)C(C)C [C128A, GX1KRLVQRLKDX2LRNLV-amide] (H-G[Bip]KR[dL]VQR[dL]KDF[dL]RNLV-NH2) | – | – | >900 µM | 12.5 µM (≈ 27.2 µg/mL) | 12.5 µM (≈ 27.2 µg/mL) | 3.1 µM (≈ 6.75 µg/mL) | hemolysis at 160 µM [10]: 3 to 5%; hemolysis ([3]; human, 160 µM): <5%; S. aureus USA 300 MIC ([1]; Table 8): 40 µM; E. coli K12 MIC ([2]; Table 8): 5 µM; MIC (μM) EC ([6]; E. cloacae B2366-12): 12.5 µM (≈ 27.2 µg/mL); MIC (μM) EF ([7]; E. faecium ATCC51559): 12.5 µM (≈ 27.2 µg/mL) |
| Temporin G: temporin, APD ID 101, SEQ ID NO: 12 (FFPVIGRILNGIL; listed as Rana temporaria) | – | – | – | – | – | – | Activity G+ (activity against Gram-positive bacteria) [8]: Y/Y; Activity G− (activity against Gram-negative bacteria) [9]: Y/Y |
| Temporin-1Lb: temporin, APD ID 110, SEQ ID NO: 13 (NFLGTLINLAKKIM; listed as Rana luteiventris) | – | – | – | – | – | – | Activity G+ (activity against Gram-positive bacteria) [8]: Y; Activity G− (activity against Gram-negative bacteria) [9]: N |
| GKPRPYSPRPTSHPRPIRV [Drosocin, reference compound] | >100 µM | >100 µM | – | – | – | – | – |
